Test system: skin keratinocyte cell line HaCaT
Assay: Resazurin assay of HaCaT keratinocyte cell proliferation and viability
Format: cell-based, human
Conditions: Example 2, 24 hours, Calcipotriol alone 10 μM, FIG. 2
Experimental: The spontaneously immortalized, nontumorigenic skin keratinocyte cell line HaCaT was maintained in DMEM supplemented with 5% (v/v) FBS, 0.3 mg/ml glutamine and 0.1 mg/ml gentamicin at 37° C. with 5% CO2 in a humidified atmosphere. Subculture using trypsin-EDTA was performed every 3-4 days with split ratio of 1:3-1:4 to ensure actively proliferating cells.
Cells were seeded in 96 well plates in fully supplemented medium at a density of 2500 cells per well. Following 72 hours of cultivation, the cells were starved of serum in 0.25% FBS/DMEM overnight to halt proliferation, synchronize the cells and to increase cell sensitivity to treatment. On day 4, the cells were treated with cPLA2a inhibitor Compound A and corticosteroid Betamethasone 17, 21-dipropionate (Sigma Aldrich # B1152) and left to incubate for […] in incubator at 37° C. with 5% CO2 in a humidified atmosphere before fluorescence was read at 544 nm excitation and 590 nm emission wavelength. […]
Cells were seeded in 96 well plates in fully supplemented medium at a density of 2500 cells per well. […] On day 5, resazurin was added according to the manufacturer's instruction (RnD Systems, UK) and left to incubate for 2 hour incubator at 37° C. with 5% CO2 in a humidified atmosphere before fluorescence was read at 544 nm excitation and 590 nm emission wavelength. […]

`C=C1/C(=C\C=C2/CCC[C@]3(C)[C@@H]([C@H](C)/C=C/[C@@H](O)C4CC4)CC[C@@H]23)C[C@@H](O)C[C@@H]1O` [Calcipotriol, Calcipotriol hydrate] was tested, and the “reduction of cell proliferation” value was 20%.

From patent publication US20200330399A1, “COMBINATION THERAPY COMPRISING A POLYUNSATURATED KETONE AND A CORTICOSTEROID” (priority 2016, published 2020)
